Measurements from US20260242359A1, “IRHOM2 INHIBITORS AND USES THEREOF” (NEW YORK SOCIETY FOR THE RELIEF OF THE RUPTURED AND …, priority 2023, published 2026).
Like-named read-outs stand apart in the source and are kept apart here.

Tested on: PMA-induced release of endogenous HB-EGF from human THP-1 macrophage cells
Assay: Example 15: ELISA-based HB-EGF release assay, PMA-induced, THP-1 macrophage cells
Type: cell-based
Conditions: read-out: inhibition of PMA-induced release of HB-EGF from THP-1 cells
Protocol: In the following study, ELISA-based HB-EGF release assays were performed to analyze the inhibitory effects of Compounds 1, 2, 3, 4, 5, and 7 on PMA-induced release of endogenous HB-EGF from human THP-1 macrophage cells. The ELISA-based HB-EGF release assay that was used in this example is described below.
In brief, on day 1, Nunc black MaxiSorp® 96-well plates (Thermo Fisher Scientific, USA) were coated overnight with 100 μl per well of mouse anti-human HB-EGF capture antibody (provided as part of the DuoSet ELISA kit) at 2 μg/ml TBS at 4° C.
40,000 THP-1 cells (American Type Culture Collection, USA) cells in 80 μl of normal growth medium were seeded in each well of Greiner CELLSTAR V-bottom 96-well plates (Greiner Bio-One, Germany) and pre-incubated with 20 μl per well of standard growth medium supplemented with Batimastat (BB94, Abcam, UK) at 50 μM as positive control (for a final concentration of 10 μM in the resulting 100 μl sample volume), compounds of the invention at 50 μM (for a final concentration of 10 μM in the resulting 100 μl sample volume) and in case of Buffer stimulated and unstimulated controls with DMSO (Carl Roth, Germany) at 50 μM (for a final concentration of 10 μM in the resulting 100 μl sample volume) at 37° C., 5% CO2 for 30 minutes. Subsequently, cells (except those for unstimulated controls) were stimulated with 20 μl per well of PMA (Sigma-Aldrich, USA) at 150 ng/ml in growth medium for a final concentration of 25 ng/ml at 37° C., 5% CO2 for 23 hours.
On day 2, the capture antibody solution was removed and MaxiSorp® plates were blocked with 300 μl per well of TBS, 1% BSA at room temperature for 1-2 hours. Meanwhile, the 96-well plates were centrifuged to pellet cells. In parallel, blocking buffer was removed from the MaxiSorp® plates and plates were washed 4 times with 350 μl TBS-T (Carl Roth, Germany) per well on a 96-head plate washer (Tecan Group, Switzerland). To avoid drying-up, 30 μl TBS were added to each well of the MaxiSorp® plates immediately, followed by the transfer of 70 μl cell-free supernatant per sample. Additionally, 100 μl recombinant human HB-EGF protein (provided as part of the DuoSet ELISA kit) diluted in TBS at defined concentrations were added to the plate as standard references. Plates were incubated at room temperature for 2 hours. After 4 times washing with 350 μl TBS-T (Carl Roth, Germany) per well on a 96-head plate washer (Tecan Group, Switzerland) and careful removal of all buffer traces after the fourth cycle, 100 μl biotinylated goat anti-human HB-EGF detection antibody (provided as part of the DuoSet ELISA kit) at 50 ng/ml TBS were added per well and, protected from direct light, plates were incubated at room temperature for 2 hours.
After 4 times washing with 350 μl TBS-T (Carl Roth, Germany) per well on a 96-head plate washer (Tecan Group, Switzerland) and careful removal of all buffer traces after the fourth cycle, 100 μl streptavidin-AP (R&D Systems, USA) diluted 1:10,000 in TBS were added to each well and, again protected from direct light, plates were incubated at room temperature for 30 minutes. Following another round of 4 times washing with 350 μl TBS-T (Carl Roth, Germany) per well on a 96-head plate washer (Tecan Group, Switzerland) and careful removal of all buffer traces after the fourth cycle, 100 μl AttoPhos substrate solution (Promega, USA) per well was added for incubation in the dark at room temperature for 1 hour. Using an infinite M1000 (Tecan Group, Switzerland) microplate reader, the fluorescence of each well was collected at an excitation wavelength of 435 nm and an emission wavelength of 555 nm.
The delta between Buffer stimulated and Buffer unstimulated was defined 100% inhibition.

[1] = THP-1, 10 μM final concentration, PMA 25 ng/ml, 23 hours, delta Buffer stimulated vs unstimulated = 100% inhibition

## CNC(=O)[C@H](Cc1ccccc1)NC(=O)[C@H](CC(C)C)[C@H](CSc1cccs1)C(=O)NO [Batimastat, reference compound]
[1]
  inhibition at 10 µM: 99.2%

## CCC(=O)NCCc1c(/C=C2/C(=O)NC(=O)N(c3ccc(C)cc3C)C2=O)[nH]c2ccccc12 [Compound 1]
THP-1, 23 h
  inhibition at 10 µM: 95.4%

## CCOC(=O)c1ccc(Nc2nc3nonc3n3nnnc23)cc1 [Compound 2]
[1]
  inhibition at 10 µM: 77.5%

## O=C(c1c(Cl)cccc1Cl)N1CCC(Cc2ccc(F)cc2)CC1 [Compound 3]
[1]
  inhibition at 10 µM: 29.6%

## Cc1c(C(=O)NCc2cccs2)sc(=O)n1Cc1ccccc1 [Compound 4]
[1]
  inhibition at 10 µM: 62.5%

## Cc1c(C(=O)NCc2cccs2)sc(=O)n1Cc1ccccc1F [Compound 5]
[1]
  inhibition at 10 µM: 55.1%

## Cc1c(C(=O)NCc2ccco2)sc(=O)n1Cc1ccccc1F [Compound 7]
[1]
  inhibition at 10 µM: 95.1%
